Laboratory results: US20250134867A1, “METHOD FOR MODULATING LIPID METABOLISM, AMELIORATING NON-ALCOHOLIC FATTY LIVER DISEASE AND METABOLIC SYNDROME BY USING 6-METHOXYBENZOXAZOLINONE” (Taichung District Agricultural Research and Extension …, priority 2023, published 2025)

Experiments:
[1] = test system: HFD-induced obese C57BL/6J mice; assay: Fat deposition (eWAT) and serum lipid levels in HFD-induced obese mice; format: in vivo; conditions: 12 weeks oral; for HFD-induced increase in the mass of eWAT / serum LDL-C / serum HDL cholesterol (HDL-C) / serum total cholesterol (TC) / serum triglyceride (TG): HFD mice; for HFD-induced increase in the mass of eWAT: CX 10 and 30 mg/kg/day, EGCG 30 mg/kg/day; for serum LDL-C: calculated as (TC)-(HDL-C)-(TG/5); for serum HDL cholesterol (HDL-C) / serum total cholesterol (TC) / serum triglyceride (TG): vs HFD group; for adipocyte diameters: compared with the HFD group
Source text: (§1) The animals used in the examples are described below. 5-week-old male C57BL/6J mice were purchased from The National Laboratory Animal Center, Taipei, Taiwan and were maintained in a temperature-controlled room on a 12-h light-dark cycle. They were housed with four per cage and had free access to food and drinking water. Mice fed with a standard diet and adapted to the environment for 1 week were subsequently divided randomly into five groups. The ND group (n=8) continued on the same diet, whereas the other four groups (n=8 per group) were switched to the HFD (494 kcal/100 g, 45% energy as fat; TestDiet Inc., USA). Among the four HFD groups, three groups started to receive CX at 10 mg/kg/day (CX10 group), CX at 30 mg/kg/day (CX30 group), and epigallocatechin gallate (EGCG) (Sigma, Inc., USA) at 30 mg/kg/day (EGCG30 group) by oral gavage. EGCG was suspended in 0.5% methylcellulose solution for oral administration. Food consumption and weight gain were measured daily and weekly, respectively. After 12 weeks, all mice were sacrificed. Serum samples, liver tissue, epididymis adipose tissue and feces were harvested for further analysis. The experimental protocol was approved by the Animal Research Committee of the National Yang Ming Chiao Tung University (IACUC no. 1091013), and all procedures followed The Guide for the Care and Use of Laboratory Animals (NIH publication, 85-23, revised 1996) and the guidelines of the Animal Welfare Act, Taiwan. The procedure regarding immunohistochemical tissue characterization is as follows. During dissection of the mice, epididymis adipose tissue and liver were isolated, weighed, and subsequently fixed in 10% paraformaldehyde in PBS. After overnight fixation, tissues were embedded in paraffin for hematoxylin and eosin (H&E) staining. All specimens were observed microscopically (Carl Zeiss Inc., Germany) at 200× magnification. […] The procedure regarding biochemical characterization is as follows. The serum triglyceride (TG), total cholesterol (TC), high-density lipoprotein-cholesterol (HDL-C), glutamic oxaloacetic transaminase (GOT), glutamic pyruvic transaminase (GPT), albumin (ALB), uric acid (UA), and creatinine (CRE) levels were measured using enzymatic assay kits with a FUJI DRI-CHEM analyzer (Fujifilm, Tokyo, Japan). The LDL-C level was calculated as [(TC)-(HDL-C)-(TG/5)].

[2] = test system: HFD-induced obese C57BL/6J mice; assay: Liver fat deposition and liver damage markers (NAFLD) in HFD-induced obese mice; format: in vivo; conditions: for liver weight / ratio of liver weight and body weight / lipid accumulation in the liver tissue (H&E and Oil Red O staining) / hepatic cholesterol (TC) level / hepatic triglyceride (TG) level: HFD mice, 12 weeks oral; for liver weight: CX 10 and 30 mg/kg/day, EGCG 30 mg/kg/day; for ratio of liver weight and body weight: among all groups; for lipid accumulation in the liver tissue (H&E and Oil Red O staining): normal morphology of liver cells maintained; for hepatic cholesterol (TC) level / hepatic triglyceride (TG) level: vs HFD; for serum albumin (ALB) level: compared with ND group, HFD group significantly higher
Source text: as §1, with “[(TC)-(HDL-C)-(TG/5)]. The procedure regarding triglyceride and cholesterol analysis of liver tissue is as follows. For triglyceride and cholesterol determinations, mouse liver tissues were extracted and analyzed using triglyceride and cholesterol quantitation assay kits (Abcam, UK), respectively, according to the manufacturer's instruction.” for “[(TC)-(HDL-C)-(TG/5)].”

[3] = test system: adenosine 5′-monophosphate-activated protein kinase (AMPK); assay: Western blot analysis, AMPK phosphorylation in OA-induced HuS-E/2 cells; format: cell-based, human; conditions: CX at 100-400 μM, 0.1 mM OA-induced HuS-E/2 cells
Source text: (§2) The procedure regarding Western blot analysis is as follows. For western blot analysis, an equal amount of protein from each sample was resolved by sodium dodecyl sulfate polyacrylamide gel electrophoresis (SDS-PAGE) and then transferred to polyvinylidene fluoride (PVDF) membranes. Primary antibodies against AMPK (Cat. GTX103487), adipose triglyceride lipase (ATGL) (Cat. GTX109941), carnitine palmitoyl-transferase 1 (CPT1) (Cat. GTX114337), and β-actin (Cat. GTX109639) were from GeneTex (Taiwan), and those against pAMPK (Cat. AP0432), phospho acetyl-CoA carboxylase (pACC) (Cat. AP0298), ACC (Cat. A15606), and fatty acid synthase (FAS) (Cat. A21182) was from ABclonal (China). Horseradish peroxidase (HRP)-conjugated secondary antibodies were from Jackson ImmunoResearch Laboratories, Inc., USA. WesternBright® ECL kits (Advansta Inc., USA) were used for protein visualization. Levels of protein expression were quantified by densitometric analyses.

[4] = test system: adipose triglyceride lipase (ATGL); assay: Western blot analysis, ATGL expression in OA-induced HuS-E/2 cells; format: cell-based, human; conditions: CX at 50-400 μM, 0.1 mM OA-induced HuS-E/2 cells
Source text: as §2

[5] = test system: acetyl-CoA carboxylase (ACC1); assay: Western blot analysis, ACC1 phosphorylation in OA-induced HuS-E/2 cells; format: cell-based, human; conditions: CX at 50-400 μM, 0.1 mM OA-induced HuS-E/2 cells
Source text: as §2

[6] = test system: carnitine palmitoyl-transferase 1 (CPT1); assay: Western blot analysis, CPT1 expression in OA-induced HuS-E/2 cells; format: cell-based, human; conditions: CX at 50-400 μM, 0.1 mM OA-induced HuS-E/2 cells
Source text: as §2

[7] = CX at both supplementations (10 and 30 mg/kg/day), 12 weeks

Row | Compound | HFD-induced increase in the mass of eWAT [1] | serum LDL-C [1] | serum HDL cholesterol (HDL-C) [1] | serum total cholesterol (TC) [1] | serum triglyceride (TG) [1] | adipocyte diameters [1] | liver weight [2] | ratio of liver weight and body weight [2] | lipid accumulation in the liver tissue (H&E and Oil Red O staining) [2] | hepatic cholesterol (TC) level [2] | hepatic triglyceride (TG) level [2] | serum albumin (ALB) level [2] | AMPK phosphorylation [3] | serum GOT (HFD-induced high level) [2, 7] | serum GPT (HFD-induced high level) [2, 7] | ATGL expression [4] | ACC1 phosphorylation [5] | CPT1 levels [6]
1 | O=C(O[C@@H]1Cc2c(O)cc(O)cc2O[C@@H]1c1cc(O)c(O)c(O)c1)c1cc(O)c(O)c(O)c1 [EGCG, epigallocatechin gallate, reference compound] | ameliorated | somewhat ameliorated | did not differ significantly from the HFD group | significantly lower than the HFD group | significantly lower than the HFD group | lower cell diameters and smaller cell size | significantly lower than HFD group | did not differ among all groups | greatly ameliorated | much lower | much lower | no difference | – | – | – | – | – | –
2 | COc1ccc2[nH]c(=O)oc2c1 [CX, 6-methoxybenzoxazolinone] | ameliorated | somewhat ameliorated | did not differ significantly from the HFD group | significantly lower than the HFD group | significantly lower than the HFD group | lower cell diameters and smaller cell size | significantly lower than HFD group | did not differ among all groups | greatly ameliorated | much lower | much lower | no difference | marked increase | significantly prevented | significantly prevented | increased ATGL expression substantially | increasing ACC1 phosphorylation | elevated CPT1 levels
